Each structure is given as a SMILES string.

4 molecules from patent US4198504A, “[3-(Pyridinium)-7-(naphthyiridinyl carbonylamino)acetamido]cephalosporanic acid derivatives” (Bristol-Myers Company, priority 1978, dated 1980) can be followed below.

The subject of one data set is Ps. aeruginosa. Nature of the data set: In vitro MIC, serial two-fold agar dilution, primary evaluation Ps (6 strains). In kind it is cell-based. The conditions noted are these: CBPC = 100%; geometric mean of MICs; Mueller-Hinton agar. How it is done: (§1) Minimun inhibitory concentrations (MIC) were determined by the serial two-fold agar dilution method using Steers' apparatus on Mueller-Hinton agar plate against 31 test organisms for the primary screening and also against 64 strains of Pseudomonas aeruginosa for the secondary evaluation. The results are shown in Table 1 in terms of relative activity with respect to the standard compound CBPC (carbenicillin) which was set at 100%. In each group the calculation was based on the geometric mean of the observed MICs.
Ps. = Ps. aeruginosa (6).
(In general: In agar dilution, organisms are placed on agar that contains the substance at set levels.)

The test system of another data set is Escherichia coli Juhl. Nature of the data set: In vivo efficacy, experimental infection in mice, intramuscular treatment, Escherichia coli Juhl. More on the design: species or system Escherichia coli (infected mice). The conditions noted are these: im, 120 h, I.M., 100×LD50 challenge i.p., 5 days, read-out: PD50 Escherichia coli Juhl. How it is done: (§2) The in vivo efficacy was evaluated by intramuscular treatment against three kinds of experimental infection in mice.
(§3) The in vivo tests were carried out using the following three pathogenic organisms:
(§4) Mice were challenged intraperitoneally with approximately a 100×LD50 dose of the pathogens in a 5% mucin suspension. The mice were treated with test compound by I.M. route immediately after the bacterial challenge.

Data set [1] relates to Pseudomonas aeruginosa A9843. Nature of the data set: In vivo efficacy, experimental infection in mice, intramuscular treatment, Pseudomonas aeruginosa A9843. Further details: species or system Pseudomonas aeruginosa (infected mice). The conditions noted are these: A9843, im, 120 h, I.M., 100×LD50 challenge i.p., 5 days, read-out: PD50 Pseudomonas aeruginosa A9843. How it is done:
as §2, §3
Pseudomonas aeruginosa A9843
as §4

Data set [2] relates to Ent. cloacae (3), Pr. vulgaris (1), Pr. morganii (1), S. marcescen (1). Description: In vitro MIC, serial two-fold agar dilution, primary evaluation Gn-II (Ent. cloacae, Pr. vulgaris, Pr. morganii, S. marcescens). In kind it is cell-based. The conditions noted are these: CBPC = 100%; geometric mean of MICs; Mueller-Hinton agar. How it is done: as §1
GnII = Ent. cloacae (3), Pr. vulgaris (1), Pr. morganii (1), S. marcescen

Data set [3] in a line: Antibiotic blood levels in mice following intramuscular administration (paper disc-agar diffusion, Escherichia coli NIHJ as assay organism). In kind it is in vivo. The conditions noted are these: mouse, im, I.M., 20 mg./kg.; for half-life: read-out: Blood level, Half-life; for Cmax: read-out: Blood level, Peak Concentration. How it is done: Antibiotic blood levels were determined in mice following intramuscular administration of the test compounds at 20 mg./kg. The blood samples were collected from the orbital sinuses into heparinized capillary tubes at 15, 30, 60 and 120 minutes after administration. The antibiotic concentration was determined by the paper disc-agar diffusion method using Escherichia coli NIHJ as the assay organism.
In general terms: In agar diffusion tests the substance spreads into inoculated agar from a disc or well.

In a further data set the test system is S. aureus. Nature of the data set: In vitro MIC, serial two-fold agar dilution, primary evaluation Gp (S. aureus, 6 strains). In kind it is cell-based. The conditions noted are these: CBPC = 100%; geometric mean of MICs; Mueller-Hinton agar. How it is done: as §1
*GP = S. aureus (6 strains);

For data set [4], the system named is Staphylococcus aureus Smith. Nature of the data set: In vivo efficacy, experimental infection in mice, intramuscular treatment, Staphylococcus aureus Smith. The conditions noted are these: im, 120 h, I.M., 100×LD50 challenge i.p., 5 days, read-out: PD50 Staphylococcus aureus Smith. More on the design: species or system Staphylococcus aureus (infected mice). How it is done: as §2, §3
Staphylococcus aureus Smith
as §4

Data set [5] has as its system E. coli (9), Klebsiella sp. (2), Pr. mirabilis (1), Sal. enteritidis (1). Nature of the data set: In vitro MIC, serial two-fold agar dilution, primary evaluation Gn-I (E. coli, Klebsiella sp., Pr. mirabilis, Sal. enteritidis). The conditions noted are these: CBPC = 100%; geometric mean of MICs; Mueller-Hinton agar. In kind it is cell-based. How it is done: as §1
GnI = E. coli (9), Klebsiella sp. (2), Pr. mirabilis (1), Sal.

For a further data set, the system named is Pseudomonas aeruginosa. Nature of the data set: In vitro MIC, serial two-fold agar dilution, secondary evaluation against Pseudomonas aeruginosa strains. The conditions noted are these: CBPC = 100%; geometric mean of MICs; 61-64 strains. In kind it is cell-based. How it is done: as §1

For orientation: half-life means the time in which the quantity being followed falls by half. In the case of `O=C([O-])C1=C(C[n+]2ccccc2C(=O)O)CSC2C(NC(=O)[C@H](NC(=O)c3cnc4cccnc4c3O)c3ccc(O)cc3)C(=O)N12` (stereo partly drawn) [BB-S585, 7-[D-α-(4-Hydroxy-1,5-naphthyridine-3-carboxamido)-α-(4-hydroxyphenyl)acetamido]-3-(2-carboxypyridinium)methyl-3-cephem-4-carboxylate], the “In vitro relative activity, primary evaluation Ps (6)” value in the data set with Ps. aeruginosa is on record as 297%. Besides, the ED50 with Escherichia coli Juhl was found to be 7.4 mg/kg; in data set [1], 86 mg/kg; in data set [4], 10 mg/kg. For the same molecule, the “In vitro relative activity, primary evaluation Gn-II (6)” value in data set [2] is recorded as 4%. Besides, the half-life in [3] is 60 min. Moreover, the Cmax in data set [3] came to 5800 ng/mL. Also, the “In vitro relative activity, primary evaluation Gp (6)” value in the data set on S. aureus was determined as 20%. Also, the “In vitro relative activity, primary evaluation Gn-I (13)” value (“In vitro relative activity … (13)” below) in [5] came to 53%. In addition, the “In vitro relative activity, secondary, Pseudomonas aeruginosa (61-64)” value (shortened to “In vitro relative activity, secondary”) in the data set on Pseudomonas aeruginosa was found to be 466%.
For `O=C([O-])C1=C(C[n+]2cccc(S(=O)(=O)O)c2)CSC2C(NC(=O)[C@H](NC(=O)c3cnc4cccnc4c3O)c3ccc(O)c(O)c3)C(=O)N12` (stereo partly drawn) [BB-S609, 7-[D-α-(4-Hydroxy-1,5-naphthyridine-3-carboxamido)-α-(3,4-dihydroxyphenyl)acetamido]-3-(3-sulfopyridinium)methyl-3-cephem-4-carboxylate], the “In vitro relative activity, primary evaluation Ps (6)” value in the data set on Ps. aeruginosa was 1450%. Moreover, the ED50 in the data set on Escherichia coli Juhl was 1.8 mg/kg; in data set [1] it was 1.2 mg/kg; in data set [4], 17 mg/kg. Further, the “In vitro relative activity, primary evaluation Gn-II (6)” value in [2] was determined as 11%. Further, the half-life in data set [3] amounted to 51 min. Moreover, the Cmax in data set [3] came to 7400 ng/mL. For the same molecule, in the data set on S. aureus, the “In vitro relative activity, primary evaluation Gp (6)” value is listed as 18%. Besides, the “In vitro relative activity … (13)” value in data set [5] is given as 53%. Further, the “In vitro relative activity, secondary” value in the data set with Pseudomonas aeruginosa is 1375%.
Regarding `O=C([O-])C1=C(C[n+]2ccc(C(=O)O)cc2)CSC2C(NC(=O)[C@H](NC(=O)c3cnc4cccnc4c3O)c3ccc(O)cc3)C(=O)N12` (stereo partly drawn) [BB-S584, 7-[D-α-(4-Hydroxy-1,5-naphthyridine-3-carboxamido)-α-(4-hydroxyphenyl)acetamido]-3-(4-carboxypyridinium)methyl-3-cephem-4-carboxylate], in the data set on Ps. aeruginosa, the “In vitro relative activity, primary evaluation Ps (6)” value worked out at 725%. Moreover, the ED50 in the data set with Escherichia coli Juhl was 4.2 mg/kg; in [1], 36 mg/kg; in data set [4], 7.6 mg/kg. Moreover, the “In vitro relative activity, primary evaluation Gn-II (6)” value in [2] is recorded as 14%. In addition, the half-life in [3] was 81 min. Besides, the Cmax in data set [3] was 12500 ng/mL. Also, in the data set with S. aureus, the “In vitro relative activity, primary evaluation Gp (6)” value worked out at 22%. In addition, the “In vitro relative activity … (13)” value in [5] was 166%. The “In vitro relative activity, secondary” value in the data set with Pseudomonas aeruginosa was 1180%.
Regarding `O=C(O)CSc1cc[n+](CC2=C(C(=O)[O-])N3C(=O)C(NC(=O)[C@H](NC(=O)c4cnc5cccnc5c4O)c4ccc(O)cc4)C3SC2)cc1` (stereo partly drawn) [BB-S599, 7-[D-α-(4-Hydroxy-1,5-naphthyridine-3-carboxamido)-α-(4-hydroxyphenyl)acetamido]-3-(4-carboxymethylthiopyridinium)-methyl-3-cephem-4-carboxylate], in the data set on Ps. aeruginosa, the “In vitro relative activity, primary evaluation Ps (6)” value is recorded as 2180%. Further, the figures for the ED50 (with Escherichia coli Juhl; in data set [1]; in data set [4]) were 2.4 mg/kg, 8.4 mg/kg and 2.2 mg/kg, respectively. The “In vitro relative activity, primary evaluation Gn-II (6)” value in data set [2] was found to be 83%. Besides, in data set [3], the half-life turned out to be 54 min. Besides, the Cmax in [3] was determined as 7800 ng/mL. Also, the “In vitro relative activity, primary evaluation Gp (6)” value in the data set on S. aureus turned out to be 35%. In addition, in data set [5], the “In vitro relative activity … (13)” value is recorded as 260%. For the same molecule, the “In vitro relative activity, secondary” value in the data set with Pseudomonas aeruginosa is recorded as 2010%.
